Earlier results in US20070166227A1, “Crowned dithiocarbamate metal complexes and methods for their use” (priority 2004, published 2007).

binding affinity for NO: log β1 (log β1): 9.74
binding affinity for NO: log β2 (log β2): 15.44
SMILES: O=C(O)C1CCCN1C(=S)[S-].O=C(O)C1CCCN1C(=S)[S-].[Cu+2] (centres unmarked) [Cu(ProDTC)2]
